Patent US11034725B2, “Compositions and methods for treating cardiovascular disease” (Genentech, Inc., priority 2016, dated 2021)
Square brackets hold non-standard residues; d marks the D form. Peptide text beside a SMILES is read from it. * marks the point of attachment. Propanoyl(3-indol-3-yl) = O=C(CCc1c[nH]c2ccccc12)*; X1 = O=C([C@H]1CC[C@@H](c2ccccc2)CC1)*; Desaminotyrosyl = O=C(CCc1ccc(O)cc1)*; Butanoyl(4-OPh) = O=C(CCCOc1ccccc1)*; Butanoyl(4-Ph) = O=C(CCCc1ccccc1)*; hArg = N=C(N)NCCCC[C@H](N)C(=O)O; X36 = CC(=O)c1ccc(OCCC(=O)*)cc1; X28 = COc1cc(OCCCC(=O)*)ccc1CO; X11 = O=C(CCCOc1ccc(Br)cc1)*; X18 = COc1ccc(OCCC(=O)*)cc1; X25 = COc1cc(CCC(=O)*)ccc1O; X31 = Cc1ccc(OCCCC(=O)*)cc1; X7 = CCc1ccc(OCCCC(=O)*)cc1; X15 = COc1cccc(CCC(=O)*)c1; X10 = Nc1cccc(CCC(=O)*)c1; X35 = Nc1ccc(CCC(=O)*)cn1; X4 = Cc1ccc(OCCC(=O)*)cc1

What was measured:
PCSK9Δhelix = target: T1, PCSK9Δhelix (Homo sapiens, UniProt Q8NBP7); experiment: PCSK9Δhelix/Ab20 TR-FRET binding assay; settings: TR-FRET; Table 8E, additional compounds; read-out: PCSK9Δhelix/Ab20 IC50
T1 construct: Human PCSK9 construct M1-Q692 with an engineered TEV site (residue deletion Y166, R167); made in house; host or cells: CHO
T1 sequence (Q8NBP7 with tags, fused parts or gaps limits assumed): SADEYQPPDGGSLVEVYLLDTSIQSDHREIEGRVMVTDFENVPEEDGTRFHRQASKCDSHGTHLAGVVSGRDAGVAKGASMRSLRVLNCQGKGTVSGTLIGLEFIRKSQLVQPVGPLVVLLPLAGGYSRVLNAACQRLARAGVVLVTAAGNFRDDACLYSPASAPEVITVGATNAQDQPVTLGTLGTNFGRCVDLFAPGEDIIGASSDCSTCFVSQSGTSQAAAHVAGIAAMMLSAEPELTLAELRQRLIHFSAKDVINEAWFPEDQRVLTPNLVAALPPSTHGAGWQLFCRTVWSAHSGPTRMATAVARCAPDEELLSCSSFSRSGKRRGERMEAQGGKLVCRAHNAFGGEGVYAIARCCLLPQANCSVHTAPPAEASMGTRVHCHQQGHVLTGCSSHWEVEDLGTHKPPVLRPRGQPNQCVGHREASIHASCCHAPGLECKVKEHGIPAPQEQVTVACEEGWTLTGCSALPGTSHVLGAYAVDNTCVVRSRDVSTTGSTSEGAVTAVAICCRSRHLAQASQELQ
T1 sequence (Q8NBP7 31-152 partner limits assumed): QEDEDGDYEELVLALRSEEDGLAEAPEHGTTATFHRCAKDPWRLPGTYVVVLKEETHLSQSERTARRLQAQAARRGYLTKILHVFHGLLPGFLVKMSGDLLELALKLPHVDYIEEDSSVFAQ

PCSK9 = PCSK9 (Homo sapiens, UniProt Q8NBP7); experiment: PCSK9/EGF(A) TR-FRET binding assay; settings: TR-FRET; Table 8E, additional compounds; read-out: PCSK9/EGF(A) IC50
Chain of PCSK9 (Q8NBP7 153-692): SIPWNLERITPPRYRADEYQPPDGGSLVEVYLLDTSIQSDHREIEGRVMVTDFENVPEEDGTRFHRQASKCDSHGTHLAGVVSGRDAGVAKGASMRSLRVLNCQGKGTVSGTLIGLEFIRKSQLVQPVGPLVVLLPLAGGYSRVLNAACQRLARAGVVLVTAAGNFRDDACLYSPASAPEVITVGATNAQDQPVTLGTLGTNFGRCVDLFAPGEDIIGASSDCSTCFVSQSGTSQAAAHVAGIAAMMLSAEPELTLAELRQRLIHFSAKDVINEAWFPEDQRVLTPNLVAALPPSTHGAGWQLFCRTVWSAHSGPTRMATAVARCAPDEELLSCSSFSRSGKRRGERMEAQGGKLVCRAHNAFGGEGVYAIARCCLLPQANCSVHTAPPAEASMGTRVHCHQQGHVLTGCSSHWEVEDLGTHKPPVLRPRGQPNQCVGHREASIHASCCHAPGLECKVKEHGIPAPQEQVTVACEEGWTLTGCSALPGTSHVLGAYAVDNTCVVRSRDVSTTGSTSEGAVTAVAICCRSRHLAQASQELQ
Chain of PCSK9 (Q8NBP7 31-152 partner limits assumed): as the sequence (Q8NBP7 31-152 partner limits assumed) above

SMILES	IC50 (PCSK9Δhelix)	IC50 (PCSK9)
CC[C@H](C)[C@H](NC(=O)[C@H](CCCCNC(=N)N)NC(=O)[C@@H](NC(=O)[C@H](CC(C)C)NC(=O)[C@H](CC(N)=O)NC(=O)[C@H](Cc1c[nH]c2ccccc12)NC(=O)CCc1c[nH]c2ccccc12)C(C)C)C(=O)NCC(=O)N[C@@H](CC(C)C)C(=O)N[C@@H](CC(C)C)C(=O)N[C@@H](CCCNC(=N)N)C(N)=O [Compound 201] ({Propanoyl(3-indol-3-yl)}-WNLV[hArg]IGLLR-NH2)	1 µM	3.9 µM
CC[C@H](C)[C@H](NC(=O)[C@H](CCCCNC(=N)N)NC(=O)[C@@H](NC(=O)[C@H](CC(C)C)NC(=O)[C@H](CC(N)=O)NC(=O)[C@H](Cc1c[nH]c2ccccc12)NC(=O)CCc1cccc(OC)c1)C(C)C)C(=O)NCC(=O)N[C@@H](CC(C)C)C(=O)N[C@@H](CC(C)C)C(=O)N[C@@H](CCCNC(=N)N)C(N)=O [Compound 202] (X15-WNLV[hArg]IGLLR-NH2)	0.34 µM	2.6 µM
CC[C@H](C)[C@H](NC(=O)[C@H](CCCCNC(=N)N)NC(=O)[C@@H](NC(=O)[C@H](CC(C)C)NC(=O)[C@H](CC(N)=O)NC(=O)[C@H](Cc1c[nH]c2ccccc12)NC(=O)CCOc1ccc(OC)cc1)C(C)C)C(=O)NCC(=O)N[C@@H](CC(C)C)C(=O)N[C@@H](CC(C)C)C(=O)N[C@@H](CCCNC(=N)N)C(N)=O [Compound 203] (X18-WNLV[hArg]IGLLR-NH2)	1.6 µM	21 µM
CC[C@H](C)[C@H](NC(=O)[C@H](CCCCNC(=N)N)NC(=O)[C@@H](NC(=O)[C@H](CC(C)C)NC(=O)[C@H](CC(N)=O)NC(=O)[C@H](Cc1c[nH]c2ccccc12)NC(=O)CCCOc1ccc(CO)c(OC)c1)C(C)C)C(=O)NCC(=O)N[C@@H](CC(C)C)C(=O)N[C@@H](CC(C)C)C(=O)N[C@@H](CCCNC(=N)N)C(N)=O [Compound 204] (X28-WNLV[hArg]IGLLR-NH2)	0.87 µM	3.6 µM
CC[C@H](C)[C@H](NC(=O)[C@H](CCCCNC(=N)N)NC(=O)[C@@H](NC(=O)[C@H](CC(C)C)NC(=O)[C@H](CC(N)=O)NC(=O)[C@H](Cc1c[nH]c2ccccc12)NC(=O)CCOc1ccc(C(C)=O)cc1)C(C)C)C(=O)NCC(=O)N[C@@H](CC(C)C)C(=O)N[C@@H](CC(C)C)C(=O)N[C@@H](CCCNC(=N)N)C(N)=O [Compound 205] (X36-WNLV[hArg]IGLLR-NH2)	0.64 µM	2.8 µM
CC[C@H](C)[C@H](NC(=O)[C@H](CCCCNC(=N)N)NC(=O)[C@@H](NC(=O)[C@H](CC(C)C)NC(=O)[C@H](CC(N)=O)NC(=O)[C@H](Cc1c[nH]c2ccccc12)NC(=O)CCCOc1ccc(Br)cc1)C(C)C)C(=O)NCC(=O)N[C@@H](CC(C)C)C(=O)N[C@@H](CC(C)C)C(=O)N[C@@H](CCCNC(=N)N)C(N)=O [Compound 206] (X11-WNLV[hArg]IGLLR-NH2)	0.87 µM	1.8 µM
CC[C@H](C)[C@H](NC(=O)[C@H](CCCCNC(=N)N)NC(=O)[C@@H](NC(=O)[C@H](CC(C)C)NC(=O)[C@H](CC(N)=O)NC(=O)[C@H](Cc1c[nH]c2ccccc12)NC(=O)CCCOc1ccc(C)cc1)C(C)C)C(=O)NCC(=O)N[C@@H](CC(C)C)C(=O)N[C@@H](CC(C)C)C(=O)N[C@@H](CCCNC(=N)N)C(N)=O [Compound 207] (X31-WNLV[hArg]IGLLR-NH2)	0.32 µM	1.3 µM
CC[C@H](C)[C@H](NC(=O)[C@H](CCCCNC(=N)N)NC(=O)[C@@H](NC(=O)[C@H](CC(C)C)NC(=O)[C@H](CC(N)=O)NC(=O)[C@H](Cc1c[nH]c2ccccc12)NC(=O)[C@H]1CC[C@@H](c2ccccc2)CC1)C(C)C)C(=O)NCC(=O)N[C@@H](CC(C)C)C(=O)N[C@@H](CC(C)C)C(=O)N[C@@H](CCCNC(=N)N)C(N)=O [Compound 208] (X1-WNLV[hArg]IGLLR-NH2)	0.1 µM	0.45 µM
CC[C@H](C)[C@H](NC(=O)[C@H](CCCCNC(=N)N)NC(=O)[C@@H](NC(=O)[C@H](CC(C)C)NC(=O)[C@H](CC(N)=O)NC(=O)[C@H](Cc1c[nH]c2ccccc12)NC(=O)CCCOc1ccccc1)C(C)C)C(=O)NCC(=O)N[C@@H](CC(C)C)C(=O)N[C@@H](CC(C)C)C(=O)N[C@@H](CCCNC(=N)N)C(N)=O [Compound 209] ({Butanoyl(4-OPh)}-WNLV[hArg]IGLLR-NH2)	0.45 µM	2.9 µM
CCc1ccc(OCCCC(=O)N[C@@H](Cc2c[nH]c3ccccc23)C(=O)N[C@@H](CC(N)=O)C(=O)N[C@@H](CC(C)C)C(=O)N[C@H](C(=O)N[C@@H](CCCCNC(=N)N)C(=O)N[C@H](C(=O)NCC(=O)N[C@@H](CC(C)C)C(=O)N[C@@H](CC(C)C)C(=O)N[C@@H](CCCNC(=N)N)C(N)=O)[C@@H](C)CC)C(C)C)cc1 [Compound 210] (X7-WNLV[hArg]IGLLR-NH2)	0.84 µM	3 µM
CC[C@H](C)[C@H](NC(=O)[C@H](CCCCNC(=N)N)NC(=O)[C@@H](NC(=O)[C@H](CC(C)C)NC(=O)[C@H](CC(N)=O)NC(=O)[C@H](Cc1c[nH]c2ccccc12)NC(=O)CCOc1ccc(C)cc1)C(C)C)C(=O)NCC(=O)N[C@@H](CC(C)C)C(=O)N[C@@H](CC(C)C)C(=O)N[C@@H](CCCNC(=N)N)C(N)=O [Compound 211] (X4-WNLV[hArg]IGLLR-NH2)	3.8 µM	14 µM
CC[C@H](C)[C@H](NC(=O)[C@H](CCCCNC(=N)N)NC(=O)[C@@H](NC(=O)[C@H](CC(C)C)NC(=O)[C@H](CC(N)=O)NC(=O)[C@H](Cc1c[nH]c2ccccc12)NC(=O)CCCc1ccccc1)C(C)C)C(=O)NCC(=O)N[C@@H](CC(C)C)C(=O)N[C@@H](CC(C)C)C(=O)N[C@@H](CCCNC(=N)N)C(N)=O [Compound 212] ({Butanoyl(4-Ph)}-WNLV[hArg]IGLLR-NH2)	1.6 µM	15 µM
CC[C@H](C)[C@H](NC(=O)[C@H](CCCCNC(=N)N)NC(=O)[C@@H](NC(=O)[C@H](CC(C)C)NC(=O)[C@H](CC(N)=O)NC(=O)[C@H](Cc1c[nH]c2ccccc12)NC(=O)CCc1ccc(O)c(OC)c1)C(C)C)C(=O)NCC(=O)N[C@@H](CC(C)C)C(=O)N[C@@H](CC(C)C)C(=O)N[C@@H](CCCNC(=N)N)C(N)=O [Compound 213] (X25-WNLV[hArg]IGLLR-NH2)	0.2 µM	3.8 µM
CC[C@H](C)[C@H](NC(=O)[C@H](CCCCNC(=N)N)NC(=O)[C@@H](NC(=O)[C@H](CC(C)C)NC(=O)[C@H](CC(N)=O)NC(=O)[C@H](Cc1c[nH]c2ccccc12)NC(=O)CCc1ccc(O)cc1)C(C)C)C(=O)NCC(=O)N[C@@H](CC(C)C)C(=O)N[C@@H](CC(C)C)C(=O)N[C@@H](CCCNC(=N)N)C(N)=O [Compound 214] (Desaminotyrosyl-WNLV[hArg]IGLLR-NH2)	0.21 µM	3 µM
CC[C@H](C)[C@H](NC(=O)[C@H](CCCCNC(=N)N)NC(=O)[C@@H](NC(=O)[C@H](CC(C)C)NC(=O)[C@H](CC(N)=O)NC(=O)[C@H](Cc1c[nH]c2ccccc12)NC(=O)CCc1cccc(N)c1)C(C)C)C(=O)NCC(=O)N[C@@H](CC(C)C)C(=O)N[C@@H](CC(C)C)C(=O)N[C@@H](CCCNC(=N)N)C(N)=O [Compound 215] (X10-WNLV[hArg]IGLLR-NH2)	0.48 µM	7 µM
CC[C@H](C)[C@H](NC(=O)[C@H](CCCCNC(=N)N)NC(=O)[C@@H](NC(=O)[C@H](CC(C)C)NC(=O)[C@H](CC(N)=O)NC(=O)[C@H](Cc1c[nH]c2ccccc12)NC(=O)CCc1ccc(N)nc1)C(C)C)C(=O)NCC(=O)N[C@@H](CC(C)C)C(=O)N[C@@H](CC(C)C)C(=O)N[C@@H](CCCNC(=N)N)C(N)=O [Compound 216] (X35-WNLV[hArg]IGLLR-NH2)	0.3 µM	6 µM
